Source: patent US11279733B2, “Peptide antibiotics” (priority 2017, dated 2022)
Like-named read-outs stand apart in the source and are kept apart here.

Tests used:
[1] = tested on: A. baumannii ATCC 19606
Procedure, shortened: (§1)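 Mid-log cultures grown in Mueller Hinton broth at 37° C were tested by 2-fold broth microdilution at 5×10^5 CFU/mL final. Compounds were dissolved in water and tested over a final range of 32 to 0.015 μg/mL.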

[2] = tested on: E. coli ATCC 25922
Procedure, shortened: as §1

[3] = tested on: K. pneumoniae ATCC 13883
Procedure, shortened: as §1

[4] = tested on: K. pneumoniae ATCC 700603, MDR
Procedure, shortened: as §1

[5] = tested on: K. pneumoniae GN_102 PmxR
Procedure, shortened: as §1

[6] = tested on: K. pneumoniae GN_106, PmxR
Procedure, shortened: as §1

[7] = tested on: S. aureus ATCC 25923, MSSA
Procedure, shortened: as §1

[8] = tested on: HEK293 cells; assay: Cytotoxicity, resazurin assay, HEK293
Procedure, shortened: (§2)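 Fluorescence read-out (excitation 560, emission 590) after a 2 h, 37 °C incubation with 5 μM resazurin, following 24 h compound treatment of cells plated at 4000 per well. CC50 values come from fitting dose–response curves of growth inhibition.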

[9] = tested on: Human kidney 2 (HK2) cells; assay: Cytotoxicity, HK2 LDH assay
Procedure, shortened: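 HK2 cells were seeded at 2000 per well in DMEM/F12 with 10% FBS and left to attach for 24 h at 37 °C, 5% CO2. They were then exposed for 24 h to 3-fold peptide dilutions starting from 600 μM solutions in quadruplicate. LDH release was read at 450 nm, and CC50 was fitted from dose-response curves.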

[10] = tested on: HepG2 cells; assay: Cytotoxicity, resazurin assay, HepG2
Procedure, shortened: as §2

[11] = tested on: Neisseria gonorrhoeae; assay: MIC determination, Neisseria gonorrhoeae; format: cell-based
Procedure, shortened: as §1

## polymyxin B sulfate [PolymyxinB, reference compound]
[1]
  MIC A. baumannii ATCC 19606: 0.25 µg/mL
[1]; A. baumannii ATCC 19606
  MIC A. baumannii ATCC 19606: 0.25 µg/mL
[1]; Table 5
  MIC, A. baumannii ATCC 19606: 0.25 µg/mL
[1]; Table 6
  MIC, A. baumannii ATCC 19606: 0.25 µg/mL
[2]
  MIC E. coli ATCC 25922: 0.25 µg/mL
[2]; E. coli ATCC 25922
  MIC E. coli ATCC 25922: 0.25 µg/mL
[2]; Table 5
  MIC, E. coli ATCC 25922: 0.25 µg/mL
[2]; Table 6
  MIC, E. coli ATCC 25922: 0.25 µg/mL
[3]
  MIC K. pneumoniae ATCC 13883: 1 µg/mL
[3]; K. pneumoniae ATCC 13883
  MIC K. pneumoniae ATCC 13883: 1 µg/mL
[3]; Table 5
  MIC, K. pneumoniae ATCC 13883: 1 µg/mL
[3]; Table 6
  MIC, K. pneumoniae ATCC 13883: 1 µg/mL
[4]
  MIC K. pneumoniae ATCC 700603, MDR: 0.5 µg/mL
[4]; K. pneumoniae ATCC 700603, MDR
  MIC K. pneumoniae ATCC 700603, MDR: 0.5 µg/mL
[4]; Table 5
  MIC, K. pneumoniae ATCC 700603, MDR: 0.5 µg/mL
[4]; Table 6
  MIC, K. pneumoniae ATCC 700603, MDR: 0.5 µg/mL
[5]
  MIC K. pneumoniae GN_102 PmxR: 64 µg/mL
[5]; K. pneumoniae GN_102 PmxR
  MIC K. pneumoniae GN_102 PmxR: 64 µg/mL
[5]; Table 5, polymyxin-resistant
  MIC, K. pneumoniae Cl Koprana 10065 0661:1, PmxR: 64 µg/mL
[5]; Table 6, polymyxin-resistant
  MIC K. pneumoniae GN_102 PmxR: 64 µg/mL
[5]; polymyxin-resistant
  MIC K. pneumoniae GN_102 PmxR: 64 µg/mL
[5]; strain name as in Table 11
  MIC K. pneumoniae Cl Koprana 10065 0661:1 PmxR: 64 µg/mL
[6]
  MIC K. pneumoniae GN_106, PmxR: 64 µg/mL
[6]; K. pneumoniae GN_106, PmxR
  MIC K. pneumoniae GN_106, PmxR: 64 µg/mL
[6]; Table 5, polymyxin-resistant
  MIC, K. pneumoniae Cl 138-16347-20362, PmxR: 64 µg/mL
[6]; Table 6, polymyxin-resistant
  MIC K. pneumoniae GN_106, PmxR: 64 µg/mL
[6]; polymyxin-resistant
  MIC K. pneumoniae GN_106, PmxR: 64 µg/mL
[6]; strain name as in Table 11
  MIC K. pneumoniae Cl 183-16357-20352, PmxR: 64 µg/mL
[7]
  MIC S. aureus ATCC 25923, MSSA: >64 µg/mL
[7]; S. aureus ATCC 25923, MSSA
  MIC S. aureus ATCC 25923, MSSA: >64 µg/mL
[7]; Table 5
  MIC, S. Aureus ATCC 25923, MSSA: >64 µg/mL
[7]; Table 6
  MIC, S. aureus ATCC 25923, MSSA: >64 µg/mL
[8]; read-out: HEK-293-CC50, HEK293, 24 h
  CC50: > 300 µM
[8]; read-out: HEK-293-CC50, HEK293 cells
  CC50: > 300 µM
[8]; read-out: HEK-293-CC50, Table 5, HEK293 cells
  CC50: > 300 µM
[8]; read-out: HEK-293-CC50, Table 6, HEK293 cells
  CC50: > 300 µM
[8]; read-out: HEK-293 CC50, HEK293 cells
  CC50: > 300 µM
[9]; read-out: HK2 (LDH) CC50, HK2 cells, LDH
  CC50: 125 µM
[9]; read-out: HK2 (LDH)-CC50, HK2, LDH, 24 h
  CC50: 125 µM
[9]; read-out: HK2 (LDH)-CC50, HK2 cells, LDH
  CC50: 125 µM
[9]; read-out: HK2 (LDH)-CC50, Table 5, HK2 cells, LDH
  CC50: 125 µM
[9]; read-out: HK2 (LDH)-CC50, Table 6, HK2 cells, LDH
  CC50: 125 µM
[10]; read-out: Hep G2-CC50, HepG2, 24 h
  CC50: > 300 µM
[10]; read-out: Hep G2-CC50, HepG2 cells
  CC50: > 300 µM
[10]; read-out: Hep G2-CC50, Table 5, HepG2 cells
  CC50: > 300 µM
[10]; read-out: Hep G2-CC50, Table 6, HepG2 cells
  CC50: > 300 µM
[10]; read-out: Hep G2 CC50, HepG2 cells
  CC50: > 300 µM
[11]; strain F89
  MIC N. gonorrhoeae F89: 9.38 µg/mL
[11]; strain FA19 ATCC BAA-1838
  MIC N. gonorrhoeae FA19 ATCC BAA-1838: 12.5 µg/mL
[11]; strain FA1090 A25 ATCC 700825
  MIC N. gonorrhoeae FA1090 A25 ATCC 700825: 10.42 µg/mL
[11]; strain H041
  MIC N. gonorrhoeae H041: 8.33 µg/mL
